Blank lines part the entries; values can stand above or below the compound they belong to.
Experiments:
[1] = target: T1, human A3 adenosine receptor (Homo sapiens, UniProt P0DMS8); assay: inhibition of forskolin-stimulated cAMP accumulation in stably transfected CHO cells expressing the human A3 receptor; assay type: cell-based
T1 construct: clone HS-21a contained the complete open reading frame corresponding to the human homolog of the rat A3 adenosine receptor; expressed in transfected cells; host or cells: CHO cells stably transfected with HS-21a cDNA
T1 sequence (P0DMS8 1-318): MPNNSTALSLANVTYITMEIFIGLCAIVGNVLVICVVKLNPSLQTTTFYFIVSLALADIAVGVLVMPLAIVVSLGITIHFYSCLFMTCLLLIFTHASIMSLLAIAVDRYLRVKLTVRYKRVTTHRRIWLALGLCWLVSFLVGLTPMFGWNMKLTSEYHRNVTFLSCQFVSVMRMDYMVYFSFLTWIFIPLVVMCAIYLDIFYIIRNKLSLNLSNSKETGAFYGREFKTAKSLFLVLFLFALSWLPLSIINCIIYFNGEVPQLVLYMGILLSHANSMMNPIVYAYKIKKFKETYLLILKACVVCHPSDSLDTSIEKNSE
Description: The human A3 adenosine receptor from a striatal cDNA library can be cloned using a probe derived from the homologous rat sequence.
cAMP Accumulation in Stable CHO Cell Lines
The changes in cAMP accumulation can alternatively be measured in stably transfected CHO cells expressing the human adenosine receptor subtypes. CHO cells are washed twice in phosphate buffered saline (PBS) and detached in 0.2% EDTA in PBS. The cells are pelleted at 800 rpm for 10 min and resuspended in KRH buffer (140 mM NaCl/5 mM KCl/2 mM CaCl2 /1.2 mM MgSO4 /1.2 mM KH2 PO4 /6 mM glucose/25 mM Hepes buffer, pH 7.4). The cells are washed once in KRH buffer and resuspended at 10^7 cells/mL. The cell suspension (100 μl) is mixed with 100 μl of KRH buffer containing 200 uM Ro 20-1724 and incubated at 37° C. for 10 minutes. Adenosine (10 uM) was added in 200 μl KRH buffer containing 200 uM Ro 20-1724 and incubated at 37° C. for 20 minutes. After the incubation, 400 μl of 0.5 mM NaOAc (pH 6.2) was added and the sample was boiled for 20 minutes. The supernatant was recovered by centrifugation for 15 minutes and stored at -70° C. cAMP levels were determined by radiommunoassay (RIANEN kit, DuPont/NEN) using the to acetylation protocol. The effect of antagonists on cAMP accumulation are measured by preincubation for 20 minutes before adding adenosine.

A3 adenosine receptor = assay: mast cell degranulation in an animal model; assay type: in vivo
Source text: (§1) The release of enzymes, bioactive amines and arachidonic acid metabolites following mast cell activation causes vasoconstriction, edema, leukocyte accumulation, and ultimately, tissue damage. Mast cell degranulation is a component of myocardian reperfusion injury, hypersensitivity reactions (asthma, allergic rhinitis, and urticaria), ischemic bowel disease, autoimmune inflammation, and atopic dermatitis. Selective A3 adenosine receptor antagonists can be used to treat or prevent these diseases and pathologic effects that result from mast cell degranulation.
as §1, with “of: myocardial” for “of myocardian”, “inflammations, 20” for “inflammation,”, “The present invention relates to the use of highly specific meta-substituted 8-phenylxanthine” for “Selective”, “antagonists” for “antagonists can be used”

[2] = system: hamster cheek pouch anerioles; assay: vasoconstriction of hamster cheek pouch arterioles
Source text: The constrictor response has classically been attributed to A1 adenosine receptor stimulation or interactions with the renin-angiotensin system. […] In the present invention, specific blockade of the A3 subtype of the adenosine receptor by a meta-substitutedphenylxanthine is effective to block the vasoconstrictive response induced through adenosine activation of this receptor subtype. The use of a meta-substituted phenylxanthine specific inhibitor of the A3 adenosine receptor subtype is effective to inhibit effects induced by adenosine mediated mast cell degranulation, and that disease states including but not limited to myocardial ischemia (Ito et al., Am. J. Physiol. 264 (Heart Circ. Physiol. 33):H I 346-H 1354, 1993), mastcell-dependent inflammation (Raud, J., Acta. Physiol. Scand. 135 (Suppl '578):I-58, 1989), brain arteriole diameter constriction (Rosenblum, W. I., Brain Res. 49:75-82, 1973), and the release of allergic mediators (Ramkumar et al., J. Biol. Chem. 268:16887-16890, 1993), are all amenable to prevention and treatment by contacting A3 receptor bearing mast cells with an amount of a meta-substituted phenylxanthine selective A3 inhibitor effective to prevent mast cell degranulation.

asthmatics = conditions: not nonasthmatics; cited from earlier work
[3] = system: mast cells isolated from rat peritoneum; conditions: cited from earlier work
[4] = target: T1, human A3 adenosine receptor; assay: 125I-ABA binding to membranes of stably transfected CHO cells expressing the human A3 adenosine receptor (HS-21a)
Description: Membranes were prepared from transiently transfected COS7 cells […] after transfection or from G418-selected stably transfected CHO or HEK 293 cells. Cells were harvested in 1 mM EDTA in phosphate buffered saline and centrifuged at 2000×g for 10 minutes. The cell pellet was washed once with phosphate buffered saline. The cell pellet was resuspended in 2 mL of 5 mM Tris, pH 7.6/5mM MgCl2. Membranes were prepared from the cells by freeze-thaw lysis in which the suspension was frozen in a dry ice/ethanol bath and thawed at 25° C. twice. The suspension was homogenized after adding an additional 2 mL of 5 mM Tris, pH 7.6/5 mM MgCl2, in a glass dounce homogenizer with 20 strokes. The membranes were pelleted at 40,000×g at 4° C. for 20 minutes. The membrane pellet was resuspended at a protein concentration of 1-2 mg/mL in binding assay buffer, 50 mM Tris, pH 7.6/10 mM MgCl2. Protein concentration was determined by the method of Bradford ((1976) Anal. Biochem. 72: 248-250). […] Saturation binding of [^125 I]-N^6 -aminiobenizyladenosine (125I-ABA) or [^125 I]-N^6 -2-(4-amino-3-iodophenyl)ethyladenosine (APNEA) was performed on membranes prepared from pSVLA3 transfected COS7 cells. Membranes (100 μg) were incubated in the presence of 0.2 U/mL adenosine deaminase with increasing concentrations of ^125 I-ABA in the range of 0.1-30 nM for 120 minutes at 25° C. in a total volume of 500 μl. The binding assay was terminated by rapid filtration and three washes with ice-cold 50 mM Tris, pH 7.6/10 mM MgCl2 on a Skatron cell harvester equipped with a receptor binding flitermat (SKATRON INSTRUMENTS, INC). Non-specific binding was determined on non-transfected cells. Bound radioactivity was measured by scintillation counting in Ready Safe Scintillation Cocktail (BECKMAN).
The 1.7 kb HS-21a cDNA (A3) was subcloned as a SalI-BamHl fragment into the expression vector pCMV5 (Mumby, S. M., Heukeroth, R. O., Gordon, J. I. and Gilman, A. G. (1990) Proc. Natl. Acad. Sci. USA 87, 728-732.) creating the vector pCMV5-A3. CHO or HEK 293 cells stably expressing the human HS-21 a cDNA were prepared by co-transfection of 15 μg pCMV5-A3 and 1 μg pWLneo (Stratagene) using the calcium phosphate method. Stable cell lines were also generated using EBV based mammalian expression vectors, pREP (INVITROGEN). Neomycin resistant colonies were selected in 1 mg/mL G418 (GIBCO). Stable colonies were screened for expression of HS-21a by ^125 I-ABA binding.
(§2) Membranes were prepared from stable CHO cell lines in 10 mM Hepes, pH 7.4 containing 0.1 mM benzamidine and 0.1 mM PMSF as described (Mahan, L. C. et al., (1991) Mol. Pharinacol. 40, 1-7). Pellets were resuspended in 5 mM Hepes, pH 7.4/5 mM MgCl2 /0.1 mM benzarnidine/0.1 mM PMSF at a protein concentration of 1-2 mg/mL and were incubated with adenosine deaminase (Boehringer Mannheim), 2 U/mL at 37° C. for 20 minutes. Saturation binding of ^125 I-ABA was carried out on 50 μg of membranes for 120 minutes at 25° C. in a total volume of 100 μl. The assay was terminated by rapid filtration and three washes with ice-cold binding buffer on a Skatron harvester equipped with a receptor binding filtermat (Skatron Instruments, Inc.). The specific activity of ^125 I-ABA, initially 2,200 Ci/mmol, was reduced to 100 Ci/mmol with nonradioactive I-ABA for saturation analysis. Nonspecific binding was measured in the presence of 1 uM I-ABA. The KD and Bmax values were calculated by the EBDA program (McPherson, G. A. (1983) Computer Programs for Biomedicine 17, 107-114). Competition binding of agonists and antagonists was determined with ^125 I-ABA (0.17-2.0 nM, 2000 Ci/mmol). […] Binding data were analyzed and competition curves were constructed by use of the nonlinear regression curve fitting program Graph PAD InPlot, Version 3.0 (Graph Pad Software, San Diego).

[5] = system: non-transfected CHO cells; assay: 125I-ABA binding to membranes from non-transfected CHO cells
Description: as §2, with “The assay was terminated by rapid filtration and three washes with ice-cold binding buffer on a Skatron harvester equipped with a receptor binding filtermat (Skatron Instruments, Inc.). The specific activity of ^125 I-ABA, initially 2,200 Ci/mmol, was reduced to 100 Ci/mmol with nonradioactive I-ABA for saturation analysis.” left out, “Diego). Ki values were calculated using the Cheng-Prusoff derivation (Cheng, Y. C. and Prusoff, H. R. (1973) Biochem. Pharmacol. 22, 3099-3108.).” for “Diego).”
The binding properties of the receptor encoded b HS-21a were evaluated on membranes prepared from CHO cells stably expressing the HS-21a cDNA. […]

[6] = system: sheep A3 adenosine receptor; conditions: cited from earlier work
[7] = target: T1, human A3 adenosine receptor; assay: 125I-ABA binding to membranes of stably transfected CHO cells expressing the human A3 adenosine receptor (HS-21a); conditions: 1 mM nonradioactive I-ABA
[8] = 125I-ABA saturation binding, HS-21a stable CHO cell membranes

SMILES: Nc1ncnc2c1ncn2[C@@H]1O[C@H](CO)[C@@H](O)[C@H]1O [Adenosine, adenosine]
inhibition of forskolin-stimulated cAMP accumulation ([1]; stably transfected CHO cells, human A3): 30-40%
induction of mast cell degranulation (A3 adenosine receptor): induce mast cell degranulation
vasoconstrictor action [2]: vasoconstrictor action
bronchoconstriction (asthmatics): produces bronchoconstriction in asthmatics but not in nonasthmatics
release of granule contents [3]: potentiates the release of granule contents

Bmax [4, 8]: 258 fmol/mg protein
Hill coefficient [4, 8]: 0.99
agonist activity inferred from effect of uncoupling reagents on binding ([4]; HS-21a in stable CHO cell line): exhibits some agonist activity
SMILES: Nc1ccc(CNc2ncnc3c2ncn3[C@@H]2O[C@H](CO)[C@@H](O)[C@H]2O)cc1[125I] [^125 I-ABA, N^6-(4-amino-3^125 iodobenzyl)adenosine]
specific binding to non-transfected cells [5]: No specific binding
binding / affinity of ligands in words [6]: binds

agonist character (partial agonist) ([1]; human A3, stably transfected CHO cells): partial agonist
prevention of specific binding of 125I-ABA [7]: prevented
SMILES: Nc1ccc(CNc2ncnc3c2ncn3[C@@H]2O[C@H](CO)[C@@H](O)[C@H]2O)cc1I [I-ABA]
agonist affinity order [6]: I-ABA>APNEA>NECA≥R-PIA>>CPA

From patent US6303619A, “Meta-substituted acidic 8-phenylxanthine antagonists of A3 human adenosine receptors” (priority 1998, dated 2001)
